The assay addresses T1, survivin (Homo sapiens, UniProt O15392).
T1 construct: transferred to the survivin1-142 construct used in the present study; His8 tag (pHIS8 vector, thrombin-cleavable); made in house; host or cells: E. coli BL21(DE3) star
Nature of the assay: PEPperCHIP peptide microarray, survivin interaction. In kind it is binding. The note with it: 1 μg/mL survivin. The text has this: We were looking for potential direct interactions between survivin and short peptide sequences originating from PRC2 subunits and other proteins involved in histone modifications based on the in vivo results. Therefore, we created a peptide microarray of overlapping peptides obtained from EZH2, EED, SUZ12, and JARID2 to investigate how survivin interacts with the activity of the PRC2 complex. These subunits form the core of PRC2, and the interaction of survivin with the PRC2 molecular scaffold indicates a potentially disruptive role for survivin in PRC2 function. The fluorescence signal generated by labeled survivin is compared in Figure 2 as a function of position along the polypeptide chain of PRC2 subunits. Figure S1 depicts the raw fluorescence images. Moreover, the microarray fluorescence intensities projected on the three-dimensional structure of the PRC2 core complex are shown in Figure 3. The whole dataset is deposited at the Zenodo data base.
The location of survivin on the peptide microarray was clearly correlated with the amino acid content of the peptide at 1 μg/mL survivin concentration. When evaluating how accurate the predictions were, one should keep in mind that the primary and higher-order structures of the peptide were not at all considered in this analysis. Mislabeling peptides is possible for multiple reasons. The smallest fluorescence signal was chosen as the limit of detection and photon-counting errors may cause weak interactions to be undetected at low fluorescence intensities. Moreover, if the fluorescence intensity of experimental duplicates varied by more than 40%, a peptide was classified as non-interacting even if the lack of reproducibility is ambiguous evidence for the lack of interaction. […] Reducing the number of hidden layer perceptrons from 100 (the default value) to 9 had no effect on the classifier’s performance. Even a 15 amino acid peptide segment composition gives a high degree of uniqueness and highly scalable intensity for survivin-peptide interaction. Survivin has a non-globular structure with no deep binding pockets.
A peptide microarray was designed using the protein sequences from: Cdk1 (P06493), KAT2A/GCN5 (Q92830), SPI1/PU1 (P17947), SUZ12 (Q15022), EED (O75530), JADE3 (Q92613), DIABLO/SMAC (Q9NR28), BOREALIN (Q53HL2), INCENP (Q9NQS7), SGOL1 (Q5FBB7), SGOL2 (Q562F6), EZH2 (Q15910), JARID2 (Q92833), Histone H3 (P68431), AURORAKB (Q96GD4), JADE1 (Q6IE81), JTB (O76095), EVI5 (O60447), RAN (P62826), USP9X (Q93008), C-IAP1 (Q13490), STAT3 (P40763), BRUCE/APOLLON (Q9NR09), XPO1 (O14980), CDX2 (Q99626), Msx2 (P35548), RBM15 (Q96T37), PHF21A (Q96BD5), PHF8 (Q9UPP1), DIDO (Q9BTC0), JADE2 (Q9NQC1) and HASPIN (Q8TF76). The Uniprot ID is shown in parenthesis. The protein sequences were divided into 15 amino acid long peptides with a 10 amino acid overlap. To investigate background interactions with the protein-derived peptides that could interfere with the main assays, one of the PEPperCHIP Peptide Microarrays (PEPperPRINT Gmbh) was pre-staining with the secondary 6x His Tag Antibody DyLight680 antibody at a dilution of 1:1000 and with the monoclonal anti-HA (12CA5)-DyLight800 control antibody at a dilution of 1:1000. Subsequent incubation of other peptide microarray copies with survivin at a concentration of 1 μg/ml in incubation buffer was followed by staining with the secondary 6x His Tag Antibody DyLight680 antibody (Rockland Immunochemicals, Pottstown, PA, USA) and the monoclonal anti-HA (12CA5)-DyLight800 control antibody (Rockland Immunochemicals, Pottstown, PA, USA). The read-out was performed by scanning intensities of 7/7 (red/green). As an internal quality control, HA and His tag control peptides were stained simultaneously to confirm assay quality and to facilitate grid alignment for data quantification. The LI-COR Odyssey Imaging System was used for read-out, and the PepSlide Analyzer was used for quantification of spot intensities and peptide annotation. […]

T1 sequence (O15392 whole entry): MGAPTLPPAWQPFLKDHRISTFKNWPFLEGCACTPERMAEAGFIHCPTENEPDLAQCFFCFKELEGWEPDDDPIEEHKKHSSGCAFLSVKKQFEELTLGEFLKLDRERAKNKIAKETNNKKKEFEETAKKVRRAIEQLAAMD

Consider “VELVNALGQYNDDDDDDDGD DPEEREEKQKDLEDHRDDKE [EZH2_172-211, PRC2-derived peptide, EZH2 residues 172–211, synthesized by Biomatik]”, for which the “Average FI (%)” value (anti-His tag DyLight680 read-out, percentage of maximum fluorescence intensity units (64193) per peptide, 15-mer microarray peptides covering the residues) came out at 71%. Further, the “Integrated FI” value (in units of the maximum FI per peptide, 15-mer microarray peptides covering the residues) is 4.28. Also, the “survivin interaction / fluorescence on microarray (in words)” value (peptide microarray) is “high survivin-associated fluorescence intensity”.
